Data: patent US9617244B2, “Antibacterial quinoline derivatives” (JANSSEN PHARMACEUTICA NV, priority 2012, dated 2017)
Values after ≈ are worked out from the molar mass of the structure shown.

Test system: Staphylococcus aureus (ATCC29213)
Assay: In-vitro anti-bacterial activity, microtitre plate assay, IC90 determination (non-mycobacterial strains)
Format: cell-based
Settings: 90% inhibitory concentration for bacterial growth, 24 hours, resazurin fluorescence
Outline: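 Inoculum of about 100 TCID50 (10–60 CFU/well) in Mueller-Hinton broth, serial five-fold compound dilutions, 24 h at 37 °C in air. Growth read by resazurin fluorescence (ex 530/em 590 nm); IC90 in μg/ml as 90% growth inhibition.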

IC90 STA B29213 [µg/mL]	Compound
>12.63	CS(=O)(=O)c1ccc2[nH]c(=O)c(C(c3ccccc3)C3(O)CCNC(Cc4ccccc4)C3)cc2c1 (stereo not drawn) [Compound 155]
>12.63	CS(=O)(=O)c1ccc2[nH]c(=O)c(C(c3ccccc3)C3(O)CCNC(Cc4ccccc4)C3)cc2c1 (stereo not drawn) [Compound 156]
>12.98	COc1nc2ccc(S(C)(=O)=O)cc2cc1C(c1ccccc1)C1(O)CCNC(Cc2ccccc2)C1 (stereo not drawn) [Compound 158]
3.17 (≈ 6.31 µM)	COc1nc2ccc(SC)cc2cc1C(c1ccccc1)C1(O)CCNC(c2ccc(F)cc2C)C1 (stereo not drawn) [Compound 168]
7.16 (≈ 12.6 µM)	COc1nc2ccc(S(C)(=O)=O)cc2cc1C(c1cccc(Cl)c1)C1(O)CCNC(c2ccc(F)cc2C)C1 (stereo not drawn) [Compound 171]
7.16 (≈ 12.6 µM)	COc1nc2ccc(S(C)(=O)=O)cc2cc1C(c1cccc(Cl)c1)C1(O)CCNC(c2ccc(F)cc2C)C1 (stereo not drawn) [Compound 172]
3.30 (≈ 6.31 µM)	CSc1ccc2[nH]c(=O)c(C(c3cccc(Cl)c3)C3(O)CCNC(c4ccc(F)cc4C)C3)cc2c1 (stereo not drawn) [Compound 174]
2.34 (≈ 4.47 µM)	CSc1ccc2[nH]c(=O)c(C(c3cccc(Cl)c3)C3(O)CCNC(c4ccc(F)cc4C)C3)cc2c1 (stereo not drawn) [Compound 175]
3.30 (≈ 6.31 µM)	CSc1ccc2[nH]c(=O)c(C(c3cccc(Cl)c3)C3(O)CCNC(c4ccc(F)cc4C)C3)cc2c1 (stereo not drawn) [Compound 176]
6.15 (≈ 12.6 µM)	CSc1ccc2[nH]c(=O)c(C(c3ccccc3)C3(O)CCNC(c4ccc(F)cc4C)C3)cc2c1 (stereo not drawn) [Compound 178]
3.08 (≈ 6.3 µM)	CSc1ccc2[nH]c(=O)c(C(c3ccccc3)C3(O)CCNC(c4ccc(F)cc4C)C3)cc2c1 (stereo not drawn) [Compound 180]
6.15 (≈ 12.6 µM)	CSc1ccc2[nH]c(=O)c(C(c3ccccc3)C3(O)CCNC(c4ccc(F)cc4C)C3)cc2c1 (stereo not drawn) [Compound 181]
13.43 (≈ 25.1 µM)	COc1nc2ccc(S(C)(=O)=O)cc2cc1C(c1ccccc1)C1(O)CCNC(c2ccc(F)cc2C)C1 (stereo not drawn) [Compound 185]
9.51 (≈ 17.8 µM)	COc1nc2ccc(S(C)(=O)=O)cc2cc1C(c1ccccc1)C1(O)CCNC(c2ccc(F)cc2C)C1 (stereo not drawn) [Compound 186]
>13.43	COc1nc2ccc(S(C)(=O)=O)cc2cc1C(c1ccccc1)C1(O)CCNC(c2ccc(F)cc2C)C1 (stereo not drawn) [Compound 187]
1.76 (≈ 3.17 µM)	COc1nc2ccc(SC)cc2cc1C(c1ccc(Cl)cc1)C1(O)CCNC(Cc2ccc(F)c(F)c2)C1 (stereo not drawn) [Compound 189]

Test system: not given
Assay: not given
Settings: not given

melting point [°C]	Compound
194	CS(=O)(=O)c1ccc2[nH]c(=O)c(C(c3ccccc3)C3(O)CCNC(Cc4ccccc4)C3)cc2c1 (stereo not drawn) [Compound 155]
254	CS(=O)(=O)c1ccc2[nH]c(=O)c(C(c3ccccc3)C3(O)CCNC(Cc4ccccc4)C3)cc2c1 (stereo not drawn) [Compound 156]
198	COc1nc2ccc(S(C)(=O)=O)cc2cc1C(c1ccccc1)C1(O)CCNC(Cc2ccccc2)C1 (stereo not drawn) [Compound 158]
169	COc1nc2ccc(SC)cc2cc1C(c1ccccc1)C1(O)CCNC(c2ccc(F)cc2C)C1 (stereo not drawn) [Compound 168]
161	COc1nc2ccc(S(C)(=O)=O)cc2cc1C(c1cccc(Cl)c1)C1(O)CCNC(c2ccc(F)cc2C)C1 (stereo not drawn) [Compound 171]
170	COc1nc2ccc(S(C)(=O)=O)cc2cc1C(c1cccc(Cl)c1)C1(O)CCNC(c2ccc(F)cc2C)C1 (stereo not drawn) [Compound 172]
171	CSc1ccc2[nH]c(=O)c(C(c3cccc(Cl)c3)C3(O)CCNC(c4ccc(F)cc4C)C3)cc2c1 (stereo not drawn) [Compound 174]
194	CSc1ccc2[nH]c(=O)c(C(c3cccc(Cl)c3)C3(O)CCNC(c4ccc(F)cc4C)C3)cc2c1 (stereo not drawn) [Compound 175]
192	CSc1ccc2[nH]c(=O)c(C(c3cccc(Cl)c3)C3(O)CCNC(c4ccc(F)cc4C)C3)cc2c1 (stereo not drawn) [Compound 176]
> 250	CSc1ccc2[nH]c(=O)c(C(c3ccccc3)C3(O)CCNC(c4ccc(F)cc4C)C3)cc2c1 (stereo not drawn) [Compound 178]
186	CSc1ccc2[nH]c(=O)c(C(c3ccccc3)C3(O)CCNC(c4ccc(F)cc4C)C3)cc2c1 (stereo not drawn) [Compound 180]
173	CSc1ccc2[nH]c(=O)c(C(c3ccccc3)C3(O)CCNC(c4ccc(F)cc4C)C3)cc2c1 (stereo not drawn) [Compound 181]
162	COc1nc2ccc(S(C)(=O)=O)cc2cc1C(c1ccccc1)C1(O)CCNC(c2ccc(F)cc2C)C1 (stereo not drawn) [Compound 185]
166	COc1nc2ccc(S(C)(=O)=O)cc2cc1C(c1ccccc1)C1(O)CCNC(c2ccc(F)cc2C)C1 (stereo not drawn) [Compound 186]
167	COc1nc2ccc(S(C)(=O)=O)cc2cc1C(c1ccccc1)C1(O)CCNC(c2ccc(F)cc2C)C1 (stereo not drawn) [Compound 187]
160	COc1nc2ccc(SC)cc2cc1C(c1ccc(Cl)cc1)C1(O)CCNC(Cc2ccc(F)c(F)c2)C1 (stereo not drawn) [Compound 189]

Test system: Mycobacterium smegmatis (ATCC607)
Assay: In-vitro anti-bacterial activity against strain M. Smegmatis ATCC607
Format: cell-based
Settings: 90% inhibitory concentration for bacterial growth, 48 hours, Alamar Blue fluorescence
Outline: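 Serial five-fold compound dilutions in BSA-supplemented wells, inoculated with ~250 CFU/well in Mueller-Hinton broth, incubated 48 h at 37 °C, 5% CO2. Growth read by Alamar Blue fluorescence (ex 530/em 590 nm); IC90 in μg/ml.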

IC90 MSM 607 [µg/mL]	Compound
>12.63	CS(=O)(=O)c1ccc2[nH]c(=O)c(C(c3ccccc3)C3(O)CCNC(Cc4ccccc4)C3)cc2c1 (stereo not drawn) [Compound 155]
11.25 (≈ 22.4 µM)	CS(=O)(=O)c1ccc2[nH]c(=O)c(C(c3ccccc3)C3(O)CCNC(Cc4ccccc4)C3)cc2c1 (stereo not drawn) [Compound 156]
>12.98	COc1nc2ccc(S(C)(=O)=O)cc2cc1C(c1ccccc1)C1(O)CCNC(Cc2ccccc2)C1 (stereo not drawn) [Compound 158]
1.42 (≈ 2.82 µM)	COc1nc2ccc(SC)cc2cc1C(c1ccccc1)C1(O)CCNC(c2ccc(F)cc2C)C1 (stereo not drawn) [Compound 168]
5.69 (≈ 10 µM)	COc1nc2ccc(S(C)(=O)=O)cc2cc1C(c1cccc(Cl)c1)C1(O)CCNC(c2ccc(F)cc2C)C1 (stereo not drawn) [Compound 171]
3.59 (≈ 6.31 µM)	COc1nc2ccc(S(C)(=O)=O)cc2cc1C(c1cccc(Cl)c1)C1(O)CCNC(c2ccc(F)cc2C)C1 (stereo not drawn) [Compound 172]
3.30 (≈ 6.31 µM)	CSc1ccc2[nH]c(=O)c(C(c3cccc(Cl)c3)C3(O)CCNC(c4ccc(F)cc4C)C3)cc2c1 (stereo not drawn) [Compound 174]
3.30 (≈ 6.31 µM)	CSc1ccc2[nH]c(=O)c(C(c3cccc(Cl)c3)C3(O)CCNC(c4ccc(F)cc4C)C3)cc2c1 (stereo not drawn) [Compound 175]
3.30 (≈ 6.31 µM)	CSc1ccc2[nH]c(=O)c(C(c3cccc(Cl)c3)C3(O)CCNC(c4ccc(F)cc4C)C3)cc2c1 (stereo not drawn) [Compound 176]
4.89 (≈ 10 µM)	CSc1ccc2[nH]c(=O)c(C(c3ccccc3)C3(O)CCNC(c4ccc(F)cc4C)C3)cc2c1 (stereo not drawn) [Compound 178]
3.08 (≈ 6.3 µM)	CSc1ccc2[nH]c(=O)c(C(c3ccccc3)C3(O)CCNC(c4ccc(F)cc4C)C3)cc2c1 (stereo not drawn) [Compound 180]
9.75 (≈ 20 µM)	CSc1ccc2[nH]c(=O)c(C(c3ccccc3)C3(O)CCNC(c4ccc(F)cc4C)C3)cc2c1 (stereo not drawn) [Compound 181]
8.47 (≈ 15.8 µM)	COc1nc2ccc(S(C)(=O)=O)cc2cc1C(c1ccccc1)C1(O)CCNC(c2ccc(F)cc2C)C1 (stereo not drawn) [Compound 185]
8.47 (≈ 15.8 µM)	COc1nc2ccc(S(C)(=O)=O)cc2cc1C(c1ccccc1)C1(O)CCNC(c2ccc(F)cc2C)C1 (stereo not drawn) [Compound 186]
13.43 (≈ 25.1 µM)	COc1nc2ccc(S(C)(=O)=O)cc2cc1C(c1ccccc1)C1(O)CCNC(c2ccc(F)cc2C)C1 (stereo not drawn) [Compound 187]
2.78 (≈ 5.01 µM)	COc1nc2ccc(SC)cc2cc1C(c1ccc(Cl)cc1)C1(O)CCNC(Cc2ccc(F)c(F)c2)C1 (stereo not drawn) [Compound 189]
